In patent US7973072B2, “Substituted benzo-condensed cyclohexanone derivatives and the use thereof for medicament production” (Gruenenthal GmbH, priority 2005, dated 2011):

Legend:
[1] = target: T1, vanilloid receptor 1 (VR1/TRPV1) of the rat (Rattus norvegicus, UniProt O35433); assay: FLIPR Ca2+ functional study on rat vanilloid receptor 1 (rat dorsal root ganglia cells or CHO K1 cells transfected with rat VR1); assay type: cell-based; settings: for activation at 10 µM / inhibition at 10 µM: CHO-K1, test compound 10 μM; for activation at 10 µM: % activation based on Ca2+ signal after 10 μM capsaicin (CP), read-out: VR1 (rat) (% stimulation compared to 10 μM CP); for inhibition at 10 µM: suppression of Ca2+ current after 100 nM capsaicin, relative to maximum inhibition with 10 μM capsaicin (CP), read-out: VR1 (rat) (% inhibition compared to 10 μM CP); for EC50: FLIPR, agonistic action
T1 construct: host or cells: rat dorsal root ganglia primary cells (Ia) or CHO K1 cells stably transfected with the rat VR1 gene (Ib)
T1 sequence (O35433 whole entry): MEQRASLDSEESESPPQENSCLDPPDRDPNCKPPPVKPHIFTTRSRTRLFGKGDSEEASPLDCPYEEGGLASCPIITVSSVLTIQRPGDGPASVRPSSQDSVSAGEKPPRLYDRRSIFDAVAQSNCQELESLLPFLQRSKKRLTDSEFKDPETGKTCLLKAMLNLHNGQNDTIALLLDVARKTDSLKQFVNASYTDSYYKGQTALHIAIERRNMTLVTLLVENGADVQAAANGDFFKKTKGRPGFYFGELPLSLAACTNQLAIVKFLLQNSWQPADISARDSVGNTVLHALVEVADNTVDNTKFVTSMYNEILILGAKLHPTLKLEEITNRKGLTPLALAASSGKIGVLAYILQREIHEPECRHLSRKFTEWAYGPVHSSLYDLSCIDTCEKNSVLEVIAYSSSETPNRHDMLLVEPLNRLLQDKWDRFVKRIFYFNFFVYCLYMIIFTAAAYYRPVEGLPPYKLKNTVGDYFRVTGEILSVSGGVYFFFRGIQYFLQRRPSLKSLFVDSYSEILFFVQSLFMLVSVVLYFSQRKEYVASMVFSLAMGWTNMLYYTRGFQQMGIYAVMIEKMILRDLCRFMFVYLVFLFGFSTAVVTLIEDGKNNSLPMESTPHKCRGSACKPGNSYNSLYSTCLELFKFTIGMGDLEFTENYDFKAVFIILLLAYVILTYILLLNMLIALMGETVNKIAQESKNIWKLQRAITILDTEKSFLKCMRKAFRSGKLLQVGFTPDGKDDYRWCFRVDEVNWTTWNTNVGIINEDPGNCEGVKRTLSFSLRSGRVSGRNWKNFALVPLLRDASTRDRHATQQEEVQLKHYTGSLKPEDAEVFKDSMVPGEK
Experimental: The agonistic or antagonistic action of the substances to be studied on the vanilloid receptor 1 (VR1/TRPV1) of the rat species can be determined with the following assay. In this assay, the Ca^2+ current through the receptor channel is quantified with the aid of a Ca^2+-sensitive dye (Fluo-4 type, Molecular Probes Europe BV, Leiden the Netherlands) in a fluorescent imaging plate reader (FLIPR, Molecular Devices, Sunnyvale, USA).
Complete medium: 50 ml HAMS F12 Nutrient Mixture (Gibco Invitrogen GmbH, Karlsruhe, Germany) with
10% by volume of FCS (fetal calf serum, Gibco Invitrogen GmbH, Karlsruhe, Germany, heat-inactivated);
2 mM L-glutamine (Sigma, Munich, Germany);
1% by weight of AA solution (antibiotic/antimycotic solution, PAA, Pasching, Austria) and 25 ng/ml of NGF medium (2.5 S, Gibco Invitrogen GmbH, Karlsruhe, Germany)
Cell culture plate: poly-D-lysine-coated, black 96-hole plates with a clear bottom (96 well black/clear plate, BD Biosciences, Heidelberg, Germany) are additionally coated with laminin (Gibco Invitrogen GmbH, Karlsruhe, Germany) by diluting laminin to a concentration of 100 μg/ml with PBS (Ca—Mg-free PBS, Gibco Invitrogen GmbH, Karlsruhe, Germany). Aliquots having a concentration of 100 μg/ml of laminin are withdrawn and stored at −20° C. The aliquots are diluted with PBS in a ratio of 1:10 to 10 μg/ml of laminin and in each case 50 μl of the solution are pipetted into a well of the cell culture plate. The cell culture plates are incubated at 37° C. for at least two hours, the supernatant solution is removed by suction and the wells are each washed twice with PBS. The coated cell culture plates are stored with supernatant PBS which is not removed until directly before the application of the cells.
The spinal column is removed from beheaded rats and placed directly into cold HBSS buffer (Hank's buffered saline solution, Gibco Invitrogen GmbH, Karlsruhe, Germany), i.e. placed in an ice bath, which has been admixed with 1% by volume of an AA solution (antibiotic/antimycotic solution, PAA, Pasching, Austria). The spinal column is severed longitudinally and removed from the spinal canal together with fasciae. Subsequently, the dorsal root ganglia (DRGs) are removed and in turn stored in cold HBSS buffer admixed with 1% by volume of an […]. The DRGs freed completely of blood residues and spinal nerves are in each case transferred to 500 μl of cold type 2 collagenase (PAA, Pasching, Austria) and incubated at 37° C. for 35 minutes. After addition of 2.5% by volume of trypsin (PAA, Pasching, Austria), incubation is continued at 37° C. for a further 10 minutes. After complete incubation, the enzyme solution is cautiously pipetted off and the remaining DRGs are each admixed with 500 μl of complete medium.
The DRGs are each suspended repeatedly, drawn through cannulas No. 1, No. 12 and No. 16 by means of a syringe and transferred to 50 ml Falcon tubes which are made up to 15 ml with complete medium. The contents of each Falcon tube are in each case filtered through a 70 μm Falcon filter insert and centrifuged at 1200 revolutions and room temperature for 10 minutes. The resulting pellet is in each case taken up in 250 μl of complete medium and the cell count is determined.
The number of cells in the suspension is adjusted to 3 times 10^5 per ml and in each case 150 μl of this suspension are added to one well of the cell culture plates coated as described above. In the incubator, the plates are left to stand at 37° C., 5% by volume of CO2 and 95% relative air humidity for two to three days.
Subsequently, the cells are laden with 2 μM Fluo-4 and 0.01% by volume of Pluronic F127 (Molecular Probes Europe BV, Leiden, the Netherlands) in HBSS buffer (Hank's buffered saline solution, Gibco Invitrogen GmbH, Karlsruhe, Germany) at 37° C. for 30 min, washed 3× with HBSS buffer and, after a further incubation of 15 minutes, used in the FLIPR assay at room temperature for Ca^2+ measurement. […]

[2] = target: T2, human vanilloid receptor 1 (VR1) (Homo sapiens, UniProt Q8NER1); assay: FLIPR Ca2+ functional study on human vanilloid receptor 1 (CHO K1 cells transfected with human VR1); assay type: cell-based; settings: for inhibition at 10 µM: CHO-K1, test compound 10 μM, suppression of Ca2+ current after 100 nM capsaicin, relative to maximum inhibition with 10 μM capsaicin (CP), read-out: VR1 (human) (% inhibition compared to 10 μM CP); for EC50: FLIPR, agonistic action
T2 construct: expressed in transfected cells; host or cells: CHO K1 cells (ECACC), stably transfected
T2 sequence (Q8NER1 whole entry): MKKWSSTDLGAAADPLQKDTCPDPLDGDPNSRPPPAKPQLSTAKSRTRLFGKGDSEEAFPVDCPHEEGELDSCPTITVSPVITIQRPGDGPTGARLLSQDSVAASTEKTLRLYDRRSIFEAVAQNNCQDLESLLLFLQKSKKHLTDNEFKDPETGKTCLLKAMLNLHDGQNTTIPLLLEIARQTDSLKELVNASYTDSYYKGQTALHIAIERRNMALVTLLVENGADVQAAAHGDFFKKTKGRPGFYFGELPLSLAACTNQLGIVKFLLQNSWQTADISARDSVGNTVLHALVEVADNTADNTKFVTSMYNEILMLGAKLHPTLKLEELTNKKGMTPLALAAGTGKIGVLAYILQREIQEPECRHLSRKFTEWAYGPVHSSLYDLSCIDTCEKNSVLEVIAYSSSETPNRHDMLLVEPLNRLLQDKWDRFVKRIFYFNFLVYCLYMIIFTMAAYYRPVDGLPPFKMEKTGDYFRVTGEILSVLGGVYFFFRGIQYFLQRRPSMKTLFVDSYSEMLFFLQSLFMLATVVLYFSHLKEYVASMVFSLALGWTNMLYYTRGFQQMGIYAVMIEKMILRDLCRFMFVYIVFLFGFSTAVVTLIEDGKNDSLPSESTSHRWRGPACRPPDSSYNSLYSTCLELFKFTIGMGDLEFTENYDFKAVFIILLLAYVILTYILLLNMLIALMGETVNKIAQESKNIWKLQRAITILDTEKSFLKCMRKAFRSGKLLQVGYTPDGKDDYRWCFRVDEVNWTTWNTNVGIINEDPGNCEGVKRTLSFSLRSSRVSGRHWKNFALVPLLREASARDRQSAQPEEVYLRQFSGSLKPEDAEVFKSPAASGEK
Experimental: Chinese hamster ovary cells (CHO K1 cells, European Collection of Cell Cultures (ECACC), England) are transfected stably with the human vanilloid receptor 1 (VR1) gene or the vanilloid receptor 1 (VR1) gene of the rat. For functional studies, these cells are plated out onto poly-D-lysine-coated black 96-well plates with a clear bottom (BD Biosciences, Heidelberg, Germany) in a density of 25 000 cells/well. The cells are incubated overnight at 37° C. and 5% CO2 in culture medium (Ham's Nutrient Mixture F12, Gibco Invitrogen GmbH, Karlsruhe, Germany) with 10% by volume of FBS (fetal bovine serum, Gibco Invitrogen GmbH, Karlsruhe, Germany), and 18 μg/ml of L-proline (Gibco Invitrogen GmbH, Karlsruhe, Germany). The next day, the cells are laden with 2 μM Fluo-4 and 0.01% by volume of Pluronic F127 (Molecular Probes Europe BV, Leiden, The Netherlands) in HBSS buffer (Hank's buffered saline solution, Gibco Invitrogen GmbH, Karlsruhe, Germany) at 37° C. for 30 min. Subsequently, the plates are washed 3 times with HBSS buffer and, after a further incubation of 15 minutes at room temperature, used for Ca^2+ measurement in the FLIPR assay. The Ca^2+-dependent fluorescence is measured before and after addition of substances λex=488 nm, λem=540 nm). The quantification is effected by measuring the highest fluorescence intensity (FC, fluorescence counts) over the time.
The FLIPR protocol consists of 2 substance additions. First, the compounds to be tested (10 μM) are pipetted onto the cells obtained according to Ia or Ib and the Ca^2+ current is compared with the control (capsaicin 10 μM). This gives rise to the result in % activation based on the Ca^2+ signal after addition of 10 μM capsaicin (CP). After incubation for 5 minutes, 100 nM capsaicin is applied and the current of Ca^2+ is likewise determined.
Desensitizing agonists and antagonists lead to a suppression in the Ca^2+ current. % inhibition is calculated compared to the maximum achievable inhibition with 10 μM capsaicin.
Triple determinations (n=3) are performed and they are repeated in at least 3 independent experiments (N=4).

| activation at 10 µM [1] [%] | inhibition at 10 µM [1] [%] | EC50 [1] [µM] | inhibition at 10 µM [2] [%] | EC50 [2] [µM] | melting point [°C] | SMILES |
| --- | --- | --- | --- | --- | --- | --- |
| 48.5 | 83.9 | 25.4 | 9.79 | 9 | 72 to 78 | O=C(Nc1ccccc1)OCC1(COC(=O)Nc2ccccc2)CS(=O)(=O)c2ccccc2C1=O [Example Compound 43, 3,3-bis(phenylcarbamoyloxymethyl)-1,1-dioxo-1λ^6-thiochroman-4-one] |
| 11.8 | 61.5 | 20.3 | 59.2 | 13.4 | 65 to 73 | Cc1ccc2c(c1)[S+]([O-])CC(COC(=O)Nc1ccccc1)(COC(=O)Nc1ccccc1)C2=O (stereo not drawn) [Example Compound 47, 3,3-bis(phenylcarbamoyloxymethyl)-7-methyl-1-oxo-1λ^4-thiochroman-4-one] |
| 37.8 | 41.1 | 9.95 | 73.2 | 3.05 | 58 to 63 | COc1ccc(NC(=O)OCC2(COC(=O)Nc3ccc(OC)cc3)CSc3ccccc3C2=O)cc1 [Example Compound 42, 3,3-bis(4-methoxyphenylcarbamoyloxymethyl)thiochroman-4-one] |
